Measured values reported in PMC10950897, “VCF1 is a p97/VCP cofactor promoting recognition of ubiquitylated p97-UFD1-NPL4 substrates” (Nature Communications, 2024).

How the values were obtained:
[1] = system: GFP-VCF1 WT / N167A interactome, U2OS cells; experiment: GFP IP mass spectrometry, comparison of VCF1 WT and N167A interactomes (WT/N167A); format: binding, human; conditions: GFP-VCF1 WT / N167A IPs, partially denaturing RIPA buffer
Procedure: (§1) U2OS (catalog no. HTB-96) cells were obtained from ATCC. HEK293-EBNA1-6E cells were a kind gift from Yves Durocher (National Research Council Canada, Montreal, Canada). All mammalian cell lines were cultured under standard conditions at 37 °C and 5% CO2 in DMEM (Thermo) supplemented with 10% FBS (v/v) and penicillin-streptomycin (Thermo). Recombination cloning-compatible U2OS cells were generated using the Flp-In T-Rex Core Kit (Thermo) according to the manufacturer’s instructions and maintained under selection using Blasticidin (Invivogen) and Zeocin (Thermo). To generate cell lines stably expressing GFP-VCF1, U2OS Flp-In T-Rex cells (Thermo) were co-transfected with GFP-VCF1 constructs and pOG44 (Thermo) plasmids, followed by selection with Hygromycin (Invitrogen). Single clones were carefully screened for uniform expression of ectopic GFP-VCF1 at low levels and maintained under selection with Blasticidin and Hygromycin. To induce GFP-VCF1 expression, cells were treated with Doxycycline (DOX) (0.5 µg/ml) for 16 h. U2OS cell lines stably expressing Ub(G76V)-GFP or Ub(G76V)-GFP-20AA were described previously. A U2OS cell line stably expressing Ub(G76V)-GFP-NES was generated under G418 (Invivogen) selection. Clones with low baseline GFP expression were visually screened for low basal GFP expression. All cell lines used in this study were regularly tested negative for mycoplasma infection and were not authenticated.
(§2) Immunoblotting was performed as previously described. Immunoprecipitation (IP) of HA-tagged proteins was performed using Anti-HA Affinity matrix (Roche) under denaturing conditions, unless otherwise stated. GFP-trap and […] Fab-trap agarose (Chromotek) were used according to manufacturer’s instructions. Cell lysis was performed using RIPA buffer (140 mM NaCl; 10 mM Tris-HCl, pH 8.0; 0.1% sodium deoxycholate; 1% Triton X-100; 0.1% SDS; 1 mM EDTA; 0.5 mM EGTA) or EBC buffer (50 mM Tris, pH 7.5; 150 mM NaCl; 1 mM EDTA; 0.5% NP-40, 1 mM DTT). IPs were washed in non-denaturing buffer (50 mM Tris-HCl, pH 7.5; 150 mM NaCl; 0.5 mM EDTA). Cell lysis and IP under partially denaturing conditions were performed using denaturing buffer (20 mM Tris-HCl, pH 7.5; 50 mM NaCl; 0.5% sodium deoxycholate; 0.5% NP-40; 0.5% SDS; 1 mM EDTA). All lysis and wash buffers were supplemented with 1 mM fresh PMSF Protease Inhibitor (Thermo), complete EDTA-free protease inhibitor Cocktail Tablets (Roche), 1.25 mM N-ethylmaleimide (Sigma) and 50 µM PR-619 (Calbiochem).
(§3) GFP-Trap agarose (Chromotek) pulldowns were subjected to partial on-bead digestion for peptide elution, by addition of 100 µl of elution buffer (50 mM Tris, pH 7.5; 2 M urea; 2 mM DTT; 20 µg/ml trypsin) and incubation at 37 °C for 30 min. To carry out alkylation, 25 mM CAA was added to the samples, which were then left to digest overnight at room temperature. Digestion was halted by introducing 1% TFA. Purification and desalting of peptides were done using SDB-RPS StageTips. This process required preparing two layers of SDB-RPS with 100 µl of wash buffer (0.2% TFA in H2O), onto which the peptides were loaded. After centrifugation for 5 min at 500 × g, peptides were washed using 150 µl wash buffer, eluted with 50 µl elution buffer (80% ACN; 1% ammonia) and vacuum-dried.
(§4) Liquid chromatography-mass spectrometry (LC-MS) analysis was conducted using an EASY-nLC-1200 system (Thermo Fisher Scientific), coupled with a timsTOF Pro spectrometer and a nano-electrospray ion source (Bruker Daltonik). […]

[2] = system: GFP-VCF1 WT interactome, U2OS cells; experiment: GFP IP mass spectrometry of VCF1-interacting proteins, non-denaturing EBC buffer (+DOX/-DOX); format: binding, human
Procedure: as §1, §2, §3, §4

Ub(G76V)-GFP, U2OS cells = experiment: QIBC of Ub(G76V)-GFP after siRNA; format: cell-based, human; conditions: siRNA 20 nM, QIBC >10,000 cells
Procedure: as §1, with “Clones with low baseline GFP expression were visually screened for low basal GFP expression. All cell lines used in this study were regularly tested negative for mycoplasma infection and were not authenticated.” left out
Mammalian cells grown on coverslips were fixed in formalin buffer (VWR) for 15 min at room temperature (RT). […] Quantitative image-based cytometry (QIBC) was performed as described. […]

[3] = system: p97 with poly-ubiquitylated mEos3.2; experiment: In vitro p97 unfoldase assay (mEos3.2); format: biochemical, human; conditions: p97 100 nM hexamer, VCF1 300 nM, substrate 35 nM, 37 °C
Procedure: Di-ubiquitin-fused mEos3.2 fluorescent protein (diUb-mEos3.2) and ubiquitylation cascade proteins mUbe1, gpc78-ubc7 fusion and ubiquitin were recombinantly expressed in E. coli and purified as described previously. diUb-mEos3.2 substrate was enzymatically polyubiquitylated as described previously. […] The unfolding activity of p97 was monitored in vitro by measuring the decrease in diUb^n-mEos3.2 fluorescence. For this, diUb^n-mEos3.2 (35 nM), p97 (100 nM hexamer), UFD1-NPL4 (500 nM) and VCF1 (300 nM) were mixed as indicated in Eos assay buffer (50 mM HEPES, pH 7.5; 150 mM KCl; 2 mM MgCl2; 5% glycerol; 1 mM DTT) and pre-warmed to 37 °C for 5 min before ATP (2 mM) was added to start the reaction. Unfolding of red mEos3.2 fluorescence was measured every 15 s in a Varian Cary Eclipse spectrofluorometer (excitation: 500 nm; emission: 520 nm) and normalized to the first value after addition of ATP.

[4] = system: p97 (His6-p97 WT and N-domain mutants); experiment: Peptide/protein pulldown with purified WT or mutant His6-p97 (VRM, VIM, VBM, p47); format: binding, human; conditions: peptides on StrepTactin agarose (p47: protein), purified WT or mutant His6-p97, RIPA wash
Procedure: All in vitro binding experiments were performed in EBC or RIPA buffer as indicated. Recombinant Biotin-tagged K48-linked poly-ubiquitin chains (2−7) and K48-linked poly-ubiquitin chains (2−16) were purchased from R&D Systems and Enzo Life Science, respectively. Recombinant proteins were incubated with Strep-Tactin Sepharose (IBA), Glutathione agarose (Gold Biotechnology) or […] Fab-trap agarose (ChromoTek) overnight on an end-over-end rotator at 4 °C, washed six times with EBC or RIPA buffer, and resuspended in 2×Laemmli sample buffer. For p97, VCF1 or p47 pulldowns, antibodies (0.5 µg/sample) were coupled to agarose beads, incubated with recombinant proteins or cell lysates and washed with the indicated buffer. To assess p97-UFD1-NPL4 binding to ubiquitylated proteins in total cell extracts, U2OS cells were lysed in EBC buffer supplemented with protease and phosphatase inhibitors, sonicated and incubated on ice for 10 min. Lysates were cleared by centrifugation for 10 min at 16,100 × g. […]
Peptides were coupled to beads for a minimum of 2 h at 4 °C with rotation, blocked in BSA (New England Biolabs) and washed three times for 1 min, before incubation overnight at 4 °C with whole cell lysate or purified proteins. Beads were then washed three times for 1 min and bound material was eluted in 2×Laemmli sample buffer and analyzed by immunoblotting.

[5] = system: GFP-VCF1 WT interactome, U2OS cells; experiment: GFP IP mass spectrometry of VCF1-interacting proteins, partially denaturing RIPA buffer (+DOX/-DOX); format: binding, human
Procedure: as §1, with “All cell lines used in this study were regularly tested negative for mycoplasma infection and were not authenticated.” left out

p97 = experiment: GFP IP of GFP-VCF1 alanine mutants from U2OS cells; format: binding, human; conditions: full-length GFP-VCF1, U2OS
Procedure: as §2

[6] = system: p97-UFD1-NPL4 binding to K48-Ub2-7; experiment: FLAG IP: p97-UFD1-NPL4 binding to K48-linked ubiquitin chains, purified proteins; format: biochemical, human; conditions: purified proteins, FLAG IP
Procedure: (§5) All in vitro binding experiments were performed in EBC or RIPA buffer as indicated. Recombinant Biotin-tagged K48-linked poly-ubiquitin chains (2−7) and K48-linked poly-ubiquitin chains (2−16) were purchased from R&D Systems and Enzo Life Science, respectively. Recombinant proteins were incubated with Strep-Tactin Sepharose (IBA), Glutathione agarose (Gold Biotechnology) or […] Fab-trap agarose (ChromoTek) overnight on an end-over-end rotator at 4 °C, washed six times with EBC or RIPA buffer, and resuspended in 2×Laemmli sample buffer. For p97, VCF1 or p47 pulldowns, antibodies (0.5 µg/sample) were coupled to agarose beads, incubated with recombinant proteins or cell lysates and washed with the indicated buffer. To assess p97-UFD1-NPL4 binding to ubiquitylated proteins in total cell extracts, U2OS cells were lysed in EBC buffer supplemented with protease and phosphatase inhibitors, sonicated and incubated on ice for 10 min. Lysates were cleared by centrifugation for 10 min at 16,100 × g. Cell lysate (40 µg) was added to recombinant proteins in EBC buffer, incubated overnight on the rotator with […] Fab-trap agarose (ChromoTek), and beads were washed six times.

[7] = system: p97-UFD1-NPL4 binding to ubiquitylated proteins; experiment: FLAG IP: p97-UFD1-NPL4 binding to ubiquitylated proteins in U2OS cell extracts; format: biochemical, human; conditions: U2OS total cell extracts, EBC buffer
Procedure: as §5

AHNAK was tested, and the “Relative protein level (log2) WT/MUT” value [1] was 2.811 log2.
For 60S ribosomal protein L19 [RPL19], the “Relative protein level (log2) WT/noDox” value [2] was 2.902 log2.
In the case of 5’-AGCCAGCUCUUCCAUCUUA-3’ [p47 siRNA], the “effect on Ub(G76V)-GFP level” value (Ub(G76V)-GFP, U2OS cells) is reported as “had no effect”.
40S ribosomal protein S29 [RPS29] was tested, and the “Relative protein level (log2) WT/noDox” value [2] was 2.611 log2.
“VCF1-p97 complex: complex of VCF1 and p97” was tested, and the “unfolding of poly-ubiquitylated mEos3.2 without UFD1-NPL4” value [3] was “unable to unfold a poly-ubiquitylated fluorescent model substrate (mEos3.2)”.
For “PTPDLEEKRAKLAEAAERRQKEAAS [VIM, biotinylated VIM peptide of SVIP aa14-39]”, the “dependence of binding on p97 Y143” value [4] was “required for binding to all three motifs”.
With “NLTSEELRKRREAYFEKQQQK [VBM, biotinylated VBM peptide of ATXN3 aa275-295]” the “dependence of binding on p97 Y143” value [4] was “required for binding to all three motifs”.
In the case of “Transitional endoplasmic reticulum ATPase [VCP]”, the “Relative protein level (log2) WT/noDox” value [5] is reported as 4.192 log2, the “Relative protein level (log2) WT/noDox” value [2] is reported as 3.764 log2 and the “Relative protein level (log2) WT/MUT” value [1] is reported as 7.367 log2.
For “H174: alanine mutant of residue H174 in full-length VCF1”, the “effect of alanine scan on p97 binding” value (p97) was “essential for VCF1 binding to p97”.
For FLNA, the “Relative protein level (log2) WT/MUT” value [1] was 3.526 log2.
With G6PD the “Relative protein level (log2) WT/MUT” value [1] was 4.291 log2.
For Protein FAM104A, the “Relative protein level (log2) WT/noDox” value [5] was 3.522 log2 and the “Relative protein level (log2) WT/noDox” value [2] was 4.7326 log2.
For “Histone H3.1 [HIST1H3A;HIST2H3A;HIST3H3;H3F3A;H3F3B]”, the “Relative protein level (log2) WT/noDox” value [2] was 5.652 log2.
For “L170: alanine mutant of residue L170 in full-length VCF1”, the “effect of alanine scan on p97 binding” value (p97) was “essential for VCF1 binding to p97”.
With “mutation of the VRM: VCF1 with mutated VRM (N167A by Fig. 5c reply)” the “effect on p97-UFD1-NPL4 binding to K48 ubiquitin chains” value [6] was “abrogated” and the “effect on p97-UFD1-NPL4 binding to ubiquitylated proteins” value [7] was “abrogated”.
